Experimental data as given in patent US20040102438A1, “Gaba-receptor modulators for the treatment of neurodegenerative diseases of the eye” (priority 2001, published 2004).

Experiments:
[1] = Properties of the active ingredients (solubility, lipophilicity); type: physicochemical
[2] = tested on: cultured cortical cells of the rat; experiment: L-glutamate excitotoxicity in cultured cortical cells, cell death by LDH release (Tests 1 and 2); type: cell-based; conditions: active ingredient 500 nm plus 10 nm L-glutamate; after 10, 30 and 60 minutes compared with the control group (FIG. 1, FIG. 2)
Method: Dissociated cortical cells from 16-18 day old fetal rats were bred in 35 mm dishes. The nutrient medium contained during the first 7 days L-lutamine (4 mM), glucose (6 g/l), penicillin (100 U/ml), streptomycin (100 μg/ml) and 10% hormonally enriched medium, which [contained] transferrin (1 mg/ml), insulin (250 μg/ml), putrescine (600 μM), sodium selenite (0.3 μM), progesterone (0.2 μM) and estradio (0.1 μM). The dishes were stored in an atmosphere (5% CO2 and […]) heated to 37 degrees Celsius.
To form the control group (Series 1), half of the dishes were supplemented with the nutrient medium 10 nm L-glutamate and incubated under normotoxic conditions for 4 hours.
To determine the neuroprotective properties, the other half of the dishes were supplemented with the nutrient medium flunitrazepam 500 nm and 10 nm L-glutamate (Series 2) and likewise incubated under normotoxic conditions.
The number of surviving or devitalized cells was determined by determination of the amount of lactate-dehydrogenase (LDH) ejected into the cell medium. The LDH activity was determined photospectrometrically by measurement of the NADH metabolism at 340 nm. […]
In the diagrams of FIG. 1 and FIG. 2 the measured values were entered as follows: The measured value describes the number of dead cells after the test in relation to the total number of cells before the test in percent. […]

Structure (SMILES) | water solubility [1] | number of dying cells [2]
Cc1ncc2n1-c1ccc(Cl)cc1C(c1ccccc1F)=NC2 [Midazolam] | water-soluble | –
COCc1c(C(=O)OC(C)C)ncc2[nH]c3ccc(OCc4ccccc4)cc3c12 [abecamil, abecarnil] | – | reduction in the number of dying cells
CN1C(=O)CN=C(c2ccccc2F)c2cc([N+](=O)[O-])ccc21 [flunitrazepam] | – | reduction in the number of dying cells
